Data taken from US20100069498A1 (ESSENTYS AB, priority 2003, published 2010).
Values joined by “and” are separate entries in the source; they are usually repeats but may differ in a detail not shown here. Equal entries are not always repeated.

Assays:
[1] = Description: Female piglets (n=9) were purchased from the Texas Department of Criminal Justice, Huntsville, Tex.
Pigs (14 d of age) arrived at the Children's Nutrition Research Center and for a 7-day adjustment period were fed a liquid milk replacer diet (Litter Life, Merrick, Middleton, Wis.) at a rate of 50 g/(kg·d).
Briefly, under isoflurane anesthesia and aseptic conditions, the piglets were implanted with a polyethylene catheter (o.d., 1.27 mm, Becton Dickinson, Sparks, Md.) in the common portal vein, and silastic catheters (o.d., 1.78 mm) in an external jugular vein and a carotid artery.
An ultrasonic flow probe (8 to 10 mm i.d., Transonic, Ithaca, N.Y.) was placed around the portal vein.
A silicone catheter (o.d., 2.17 mm, Baxter Healthcare, McGaw Park, Ill.) was implanted into the lumen of the duodenum. The catheters were filled with sterile saline containing heparin (2.5×10^4 U/L), and exteriorized on either the left flank (portal and duodenal catheters, flow probe leads) or between the scapulae (jugular and carotid catheters).
For plasma amino acid analysis, a 0.2 mL aliquot of plasma was mixed with an equal volume of an aqueous solution of methionine sulfone (4 mmol/L) and centrifuged at 10,000×g for 120 min through a 10-kDa cutoff filter.
A 50 μL aliquot of the filtrate was dried and the amino acids were analyzed by reverse-phase HPLC of their phenylisothiocyanate derivatives (Pico Tag, Waters, Woburn, Mass.).
Plasma ammonia was determined using a spectrophotometric assay kit (171-C, Sigma-Aldrich, St. Louis, Mo.).
Plasma glucose was determined using a spectrophotometric assay kit (315-100; Sigma-Aldrich, St. Louis, Mo.).
Net portal balance of metabolites [μmol/(kg·h)] was calculated as follows:
(Conc.PORT−Conc.ART)×PBF (1)
when Conc. is the concentration in the blood (μmol/L), PORT and ART refer to portal and arterial blood and PBF is portal blood flow [L/(kg·h)].
Piglets were deprived of food for 15 h before initiation of the experiment.
On the day of the experiment, at time −1 h, a primed (7.75 mL/kg; 25% wt/wt aqueous solution; oral), continuous duodenal infusion of milk replacer [Litter Life, Merrick, Middleton, Wis.; 7.75 mL/(kg·h)] prepared as a 25% (wt/wt) aqueous solution which provided ˜920 kJ and 12.5 g protein/(kg·d).

Remark: listed apart in the source
[2] = Mean luminal disappearance of a duodenal AKG bolus; assay type: in vivo, pigs; settings: duodenal bolus 1040 μmol/kg
Experimental: After 1 h, pigs were sacrificed.
The small intestine was carefully clamped at the proximal duodenum and distal ileum, removed and flushed with 2×50 mL of saline to wash the intestine.

[3] = AKG infusion 930 μmol/(kg·h), P<0.01
[4] = AKG treatment, P<0.05, data not shown
[5] = piglets, duodenal infusion 930 μmol/(kg·h) AKG (3.75% of diet dry matter), ± SEM
[6] = pigs, duodenal infusion 930 μmol/(kg·h) AKG, n = 5
[7] = pigs, duodenal infusion 930 μmol/(kg·h) AKG, n = 5, LSMean ± SEM

O=C(O)CCC(=O)C(=O)O [AKG, alpha-ketoglutaric acid]
Effect on net portal appearance of glutamate ([1]; AKG infusion): not affected
Effect on net portal appearance of glutamine ([1]; AKG infusion): not affected
Effect on net portal balance of AKG vs control ([1]; AKG infusion 930 μmol/(kg·h)): increased
Effect on arterial AKG concentration vs control [1, 3]: increased
Effect on portal AKG concentration vs control [1, 3]: increased
Increase in proline net portal balance ([1]; AKG treated pigs vs control): 138.1 µmol/kg/h
Effect on ammonia net portal balance vs control ([1]; AKG treatment, duodenal infusion): not affected
Effect on net portal balance of glucose vs control ([1]; AKG treatment, duodenal infusion, P<0.05): decreased
Effect on portal mass balance of leucine vs control ([1]; AKG treatment, P<0.05): increased
Effect on portal mass balance of lysine vs control ([1]; AKG treatment, P<0.05): increased
Effect on portal mass balance of proline vs control ([1]; AKG treatment, P<0.05): increased
Effect on arterial concentration of proline vs control [1, 4]: increased
Effect on portal concentration of proline vs control [1, 4]: increased
Effect on portal mass balance of isoleucine vs control ([1]; AKG treatment, P<0.10): tended (P<0.10) to increase
Effect on portal leucine concentration vs control ([1]; AKG treatment, data not shown): tended (P<0.01) to be increased
AKG unaccounted for in the portal balance ([1]; duodenal infusion 930 μmol/(kg·h) AKG): over 800 μmol/(kg·h)
AKG net portal balance, % of infused ([1]; piglets, duodenal infusion 930 μmol/(kg·h) AKG): 10.23 % of infused and 10 % of infused and 10.23 ± 0.57 % of infused
AKG net portal balance [1, 5]: 95 µmol/kg/h and 95.2 ± 12 µmol/kg/h
Ammonia net portal balance [1, 5]: 561.1 ± 53 µmol/kg/h
Arterial AKG [1, 5]: 27.4 ± 3.6 µmol/L
Glucose net portal balance [1, 5]: 203.9 ± 69 mg/(kg · h)
Portal AKG [1, 5]: 64.6 ± 5.9 µmol/L
Net portal balance of Alanine, % of Intake [1, 6]: 189.0 % of Intake
Net portal balance of Arginine, % of Intake [1, 6]: 98.3 % of Intake
Net portal balance of Aspartate, % of Intake [1, 6]: 9.6 % of Intake
Net portal balance of Glutamate, % of Intake [1, 6]: 18.6 % of Intake
Net portal balance of Glycine, % of Intake [1, 6]: 116.0 % of Intake
Net portal balance of Histidine, % of Intake [1, 6]: 71.4 % of Intake
Net portal balance of Isoleucine, % of Intake [1, 6]: 140.0 % of Intake
Net portal balance of Leucine, % of Intake [1, 6]: 113.4 % of Intake
Net portal balance of Lysine, % of Intake [1, 6]: 98.8 % of Intake
Net portal balance of Phenylalanine, % of Intake [1, 6]: 98.7 % of Intake
Net portal balance of Proline, % of Intake [1, 6]: 114.5 % of Intake
Net portal balance of Serine, % of Intake [1, 6]: 108.3 % of Intake
Net portal balance of Threonine, % of Intake [1, 6]: 75.7 % of Intake
Net portal balance of Tyrosine, % of Intake [1, 6]: 135.9 % of Intake
Net portal balance of Valine, % of Intake [1, 6]: 108.9 % of Intake
Net portal balance of Alanine [1, 7]: 557.8 ± 48 µmol/kg/h
Net portal balance of Arginine [1, 7]: 109.0 ± 19 µmol/kg/h
Net portal balance of Asparagine [1, 7]: 185.6 ± 18 µmol/kg/h
Net portal balance of Aspartate [1, 7]: 29.7 ± 6.0 µmol/kg/h
Net portal balance of Glutamate [1, 7]: 80.1 ± 17 µmol/kg/h
Net portal balance of Glutamine [1, 7]: 25.5 ± 45 µmol/kg/h
Net portal balance of Glycine [1, 7]: 177.2 ± 20 µmol/kg/h
Net portal balance of Histidine [1, 7]: 45.9 ± 3.8 µmol/kg/h
Net portal balance of Phenylalanine [1, 7]: 95.2 ± 11 µmol/kg/h
Net portal balance of Serine [1, 7]: 244.7 ± 64 µmol/kg/h
Net portal balance of Threonine [1, 7]: 210.9 ± 18 µmol/kg/h
Net portal balance of Tryptophan [1, 7]: 47.2 ± 4.3 µmol/kg/h
Net portal balance of Tyrosine [1, 7]: 115.8 ± 17 µmol/kg/h
Net portal balance of Valine [1, 7]: 279.3 ± 32 µmol/kg/h
Effect on production of CO2 in the whole body (AKG infusion): did not increase
Effect on NOLD (non-oxidative leucine disposal) vs control (AKG treatment, FIG. 1): not affected
Effect on Ra (leucine appearance rate) vs control (AKG treatment, FIG. 1): not affected
Effect on whole-body leucine oxidation vs control (AKG treatment, FIG. 1): not affected
Share of the AKG bolus disappeared from the lumen of the duodenum ([2]; 1 h): approximately 64%
Luminal disappearance as share of the 1040 μmol/kg of infused AKG ([2]; pigs, one hour): 63.8
